Data taken from publication PMC7023466, “Novel N,N′-Disubstituted Acylselenoureas as Potential Antioxidant and Cytotoxic Agents” (Antioxidants, 2020).

How the values were obtained:
MCF-7 cells = experiment: MTT cell viability assay, MCF-7; type: cell-based, human; conditions: Homo sapiens, MCF7, 48 h, read-out: Growth (%) MCF-7
Protocol: (§1) The cell viability assay of each compound was carried out using the MTT assay. Each compound was dissolved in dimethyl sulfoxide (DMSO) at a concentration of 0.01 M. Serial dilutions were prepared with a non-supplemented culture medium. The effect of each compound on the cell viability was determined at two different concentrations (10 and 50 µM) in MCF-7, HTB-54, and HT-29 cells. In addition, the selected compounds were tested at six different concentrations between 0.1–100 µM in MCF-7, T47D, H1299, HTB-54, and 184B5 cells.
(§2) Briefly, 1 × 10^4 tumor cells/well or 2 × 10^4 non-tumorigenic cells/well were grown in 96-well plates for 12 h. Then, these cells were incubated with either DMSO (control) or a different concentration of each of the tested compounds for 48 h. Three hours before the termination point, 20 µL of MTT were added to measure the cellular viability. The resultant formazan crystals were dissolved in 50 µL of DMSO, and the absorbance was measured at 570 and 630 nm. The results are expressed as IC50, the half maximal inhibitory concentration. This value was calculated using OriginPro 8.5.1. software (OriginLab, Northampton, MA, USA) by nonlinear curve fitting. Furthermore, the selectivity index (SI) was calculated as the ratio of the IC50 values determined for the non-malignant and the tumor cells (IC50 (184B5)/IC50 (MCF-7). The data were obtained from at least three independent experiments performed in quadruplicates.

HTB-54 cells = experiment: MTT cell viability assay, HTB-54; type: cell-based; conditions: Homo sapiens, HTB-54, 48 h, read-out: Growth (%) HTB-54
Protocol: as §1, §2

HT-29 cells = experiment: MTT cell viability assay, HT-29; type: cell-based; conditions: Homo sapiens, 48 h, read-out: Growth (%) HT-29
Protocol: as §1, §2

| Structure (SMILES) | activity at 10 µM (MCF-7 cells) [%] | activity at 50 µM (MCF-7 cells) [%] | activity at 10 µM (HTB-54 cells) [%] | activity at 50 µM (HTB-54 cells) [%] | activity at 10 µM (HT-29 cells) [%] | activity at 50 µM (HT-29 cells) [%] |
| --- | --- | --- | --- | --- | --- | --- |
| O=C(NC(=[Se])Nc1ccccc1)c1ccccc1 [Compound 1a] | 70.5 | 6.6 | 67.8 | 57.1 | 56.9 | 23.4 |
| Cc1ccc(NC(=[Se])NC(=O)c2ccccc2)cc1 [Compound 1b] | 64.2 | 12.6 | 75.8 | 61.1 | 60.4 | 28 |
| O=C(NC(=[Se])Nc1ccc(C(F)(F)F)cc1)c1ccccc1 [Compound 1d] | 73.6 | 21.9 | 84.9 | 38.7 | 97.3 | 25.1 |
| Cc1ccc(NC(=[Se])NC(=O)c2ccccc2Cl)cc1 [Compound 2b] | 60.1 | 24.7 | 87.9 | 66.6 | 80.2 | 46.1 |
| COc1ccc(NC(=[Se])NC(=O)c2ccccc2Cl)cc1 [Compound 2c] | 62.6 | 26.4 | 84.9 | 66.7 | 76.3 | 44.8 |
| O=C(NC(=[Se])Nc1ccc(C(F)(F)F)cc1)c1ccccc1Cl [Compound 2d] | 94.2 | 10.4 | 100 | 37.6 | 87.1 | 51.7 |
| O=C(NC(=[Se])Nc1ccc(Cl)cc1)c1ccccc1Cl [Compound 2e] | 118 | 16 | 96.7 | 18.6 | 77.8 | 57.9 |
| CSc1ccc(Cl)c(C(=O)NC(=[Se])Nc2ccccc2)c1 [Compound 3a] | 84.1 | 23.1 | 88.8 | 49.9 | 71.1 | 42.7 |
| COc1ccc(NC(=[Se])NC(=O)c2cc(SC)ccc2Cl)cc1 [Compound 3c] | 73.9 | 23.7 | 79 | 27.6 | 67.9 | 44.4 |
| CSc1ccc(Cl)c(C(=O)NC(=[Se])Nc2ccc(Cl)cc2)c1 [Compound 3e] | 105 | 32.4 | 79.4 | 35.8 | 76.6 | 73 |
| O=C(NC(=[Se])Nc1ccccc1)c1cccnc1Cl [Compound 4a] | 68.8 | 29.3 | 83.1 | 67.6 | 99.1 | 34.1 |
| Cc1ccc(NC(=[Se])NC(=O)c2cccnc2Cl)cc1 [Compound 4b] | 77.6 | 32.4 | 87 | 64.8 | 99.2 | 51.7 |
| COc1ccc(NC(=[Se])NC(=O)c2cccnc2Cl)cc1 [Compound 4c] | 86.6 | 33 | 88.9 | 68.5 | 99.1 | 51.6 |
| O=C(NC(=[Se])Nc1ccc(C(F)(F)F)cc1)c1cccnc1Cl [Compound 4d] | 67.1 | 48.9 | 90.5 | 62.2 | 103 | 62.2 |
| O=C(NC(=[Se])Nc1ccc(Cl)cc1)c1cccnc1Cl [Compound 4e] | 90.6 | 60.2 | 92.1 | 63.5 | 93.4 | 67 |
